# Target: T1, α2A receptor (Oryctolagus cuniculus, UniProt Q5ZQK3)
# T1 construct: The prostatic ends of the vas deferens (2-3 cm) were removed from albino rabbits; from tissue; host or cells: rabbit vas deferens (prostatic end)
# T1 sequence (Q5ZQK3 1-451): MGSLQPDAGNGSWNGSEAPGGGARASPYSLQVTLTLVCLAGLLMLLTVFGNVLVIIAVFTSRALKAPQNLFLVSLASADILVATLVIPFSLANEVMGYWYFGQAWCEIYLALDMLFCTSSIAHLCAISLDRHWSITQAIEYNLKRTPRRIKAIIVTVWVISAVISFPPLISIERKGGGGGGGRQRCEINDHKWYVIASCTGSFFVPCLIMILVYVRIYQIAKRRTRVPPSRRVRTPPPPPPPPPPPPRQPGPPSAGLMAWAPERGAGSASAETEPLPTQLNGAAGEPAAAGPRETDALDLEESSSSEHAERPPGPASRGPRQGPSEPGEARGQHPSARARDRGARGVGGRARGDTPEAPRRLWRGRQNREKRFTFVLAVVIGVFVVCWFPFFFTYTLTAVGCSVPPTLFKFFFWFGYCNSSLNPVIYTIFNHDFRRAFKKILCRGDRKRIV
# Test: Vas deferens functional assay: reduction of electrically evoked contractions
# Format: cell-based
# Conditions: field-stimulated isolated rabbit vas deferens, 50% reduction in peak height
# Experimental: Vas Deferens: The prostatic ends of the vas deferens (2-3 cm) were removed from albino rabbits and mounted between platinum electrodes in 9 mL organ baths containing Krebs-Hensleit solution of the following composition (mM): NaCl 119, KCl 4.7, MgSO4 1.5, KH2PO4 1.2. CaCl2 2.5, NaHCO3 25 and glucose 11. This solution was maintained at 35° C and bubbled with 95% O2 and 5% CO2. The tissue was equilibrated at 0.5 g tension for 30 minutes. The vas deferens strips were then field stimulated at 0.1 Hz, 2 msec, 90 mA using a square wave stimulator (World Precision Instruments A310 Accupulser / A385 Stimulus Isolater), or a Grass S48 stimulator at 0.1 Hz, 2 msec, 70 volts. After 30 minutes of electrical stimulation, cumulative concentration-response curves in 0.25 log units were obtained with a 4 minute contact time for each concentration. Each tissue was used to evaluate only one drug. Tissue contractions produced by the field stimulation were measured isometrically using Grass FT-.03 force-displacement transducers and recorded on a Grass Model 7D physiograph. The reduction in electrically-evoked peak height by the drugs was measured and expressed as a percentage of the pre-drug peak height.
# Representative compounds of the present invention, and comparative examples, were tested according to the procedures given above. The receptor binding studies and […] are measures of the affinity of a compound for a particular receptor. The vas deferens assay is a measure of the degree of activation of the α2A affected when a compound binds to that receptor.
row,EC50,Compound
1,56200 nM,c1ccc(Nc2ncc[nH]2)cc1
2,86.3 nM,Clc1cccc(Cl)c1Nc1ncc[nH]1
3,49.4 nM,Brc1c(Nc2ncc[nH]2)ccc2nccnc12
4,1.61 nM,Cc1c(Nc2ncc[nH]2)ccc2c1OCCO2

row,Compound,EC50
1,Cc1c(Nc2ncc[nH]2)ccc2nccnc12,35.3 nM

# Reference: EP0741709B1, “AROMATIC 2-AMINO-IMIDAZOLE DERIVATIVES AS ALPHA-2A ADRENOCEPTOR AGONISTS” (Allergan Sales, Inc., priority 1994, dated 1995)
